Assay results as given in patent publication US10167311B2, “Boronic acid esters and pharmaceutical formulations thereof” (OHIO STATE INNOVATION FOUNDATION, priority 2014, dated 2019).
Read-outs that look alike come from different tables or passages of the source.

What was measured:
[1] = cited from earlier work
[2] = Pharmacokinetics in plasma after i.v. administration (boron by ICP-OES); format: in vivo; conditions: ICR mice, i.v. 1.0 mg/kg, two-compartment model, mean ± SD (n = 3)
Protocol: The Pharmacokinetics of L-BTZ was studied in ICR mice (Charles River Lab, Wilmington, Mass.). The PK profile of free BTZ was also determined. Mice were given intravenous injections of free BTZ or L-BTZ at 1.0 mg/kg body weight via tail vein. At selected time intervals, a minimum of 100 μL […] was collected from each mouse using heparin-containing tubes. Plasma was then isolated by centrifugation at 3000× g for 5 min. The drug concentration in plasma was determined by measuring Boron concentration through an inductively coupled plasma-optical emission spectrometer (ICP-OES). The Boron extraction and sample preparation has been described previously. The pharmacokinetic parameters of free BTZ and L-BTZ were calculated using WinNonlin software and a two-compartment model and are shown in Table 1.

[3] = tested on: MV4-11 AML cells; experiment: Survival of MV4-11 engrafted NSG mice; format: in vivo; conditions: liposomal formulation, 1 mg/kg twice a week
Protocol: The therapeutic activity of BTZ-MEGA-CHOL was also investigated using animal studies. NSG mice were injected with 5×10^5 MV4-11 AML cells. The mice were divided into two groups of 10 each (Trial I), and were treated with empty liposomes or the liposomal formulation of BTZ-MEGA-CHOL at 1 mg/kg, twice a week, by tail vein injection. The study was repeated once with 5 mice in each group (Trial II). Three mice from each group were sacrificed after 4 weeks of treatment in Trial I for further analysis.
For Trial I, the p value was 0.0007 (FIG. 9). For Trial II the p value was 0.0019 (FIG. 10). When the data set was viewed as a combination, the p value was <0.0001 and median survival of the mice was 28 days for the empty liposome treated (control) group and 39 days for the BTZ-MEGA-CHOL treated group (FIG. 11).

[4] = Encapsulation (drug entrapment / loading) efficiency of liposomes, Sepharose CL-4B fractions, UV-vis OD 270 nm; format: physicochemical; conditions: liposomal formulation; drug in liposome fractions / total drug fractions
Protocol: The liposome particle size distribution is determined through dynamic light scattering on a NICOMP Submicron Particle Sizer Model 370. The encapsulation efficiency was examined by a UV-visible spectrophotometer as the OD at 270 nm after 1:9 methanol extraction of fractions from the Sepharose CL-4B column (FIG. 1). A reference measurement was also taken of the OD at 450 nm without methanol extraction (FIG. 1). Then, the ratio of total amount of drug content in the liposome fractions to total drug fractions was calculated. In this example, a drug entrapment of 41% was obtained. The liposome particle size distribution was determined through dynamic light scattering on a NICOMP Submicron Particle Sizer Model 370. The encapsulation efficiency was examined by a UV-visible spectrophotometer as the OD at 270 nm after 1:9 methanol dissolution of fractions collected from the Sepharose column. A reference measurement was also taken of the OD at 450 nm without methanol dissolution. Then, the ratio of total amount of drug content in the liposome fractions to total drug fractions was calculated. […] The liposome particle size distribution was determined through dynamic light scattering on a NICOMP Submicron Particle Sizer Model 370. […] Then, the ratio of total amount of drug content in the liposome fractions to total drug fractions was calculated. […] Each fraction was analyzed by UV-vis spectrophotometry. […]

| Compound | maximum tolerated dose ([1]; intravenous bolus on days 1, 4, 8, and 11 of a 3-week cycle) | maximum tolerated dose ([1]; patients with solid tumors, intravenously once or twice weekly) | T1/2α [2] | T1/2β [2] | AUC ([2]; mouse, iv) | clearance ([2]; mouse, iv) | median survival ([3]; tail vein, Trial I and II combined, p <0.0001 vs empty liposomes (28 days)) | survival of mice ([3]; Trial I p 0.0007, Trial II p 0.0019) | drug entrapment (encapsulation efficiency) [4] |
| --- | --- | --- | --- | --- | --- | --- | --- | --- | --- |
| CC(C)C[C@H](NC(=O)[C@H](Cc1ccccc1)NC(=O)c1cnccn1)B(O)O [Free BTZ, Bortezomib] | 1.56 mg/m^2 | 1.3 mg/m^2 | 6 ± 1.2 min | 18.26 ± 13.33 h | 2870 ± 1340 ng·h/mL | 5.8 mL/min/kg | – | – | – |
| CC(C)CCC[C@@H](C)C1CCC2C3CC=C4C[C@@H](OC(=O)N(C)CC(O)[C@H]5OB([C@H](CC(C)C)NC(=O)[C@H](Cc6ccccc6)NC(=O)c6cnccn6)O[C@@H]5C(O)CO)CC[C@]4(C)C3CC[C@@]21C (stereo partly drawn) [BTZ-MEGA-CHOL] | – | – | – | – | – | – | 39 days | significant increase in survival | 80.11% |
